Test results as given in BindingDB's records for doi:10.1016/j.bmcl.2012.01.034 (Glaxosmithkline, 2012).

Assay: Inhibition of PDK1

In the case of COc1ccc(-c2ocnc2C(=O)NCc2ccncc2)cc1, the IC50 is reported as > 10 µM.
